Key:
GST-JMJD2A(1-420) = target: T1, GST-JMJD2A(1-420) (Homo sapiens, UniProt O75164); test: Fluorescence polarization (FP) binding assay, JMJD2A; details: 1 nM fluorophore, 2 h at room temperature, read-out: dissociation constant (Kd) to GST-JMJD2A(1-420)
T1 construct: Recombinant protein preparation of GASC1(1-420), JMJD2A (1-420) and LSD1 (full-length); made in house; host or cells: Escherichia coli BL-21
T1 sequence (O75164 1-420): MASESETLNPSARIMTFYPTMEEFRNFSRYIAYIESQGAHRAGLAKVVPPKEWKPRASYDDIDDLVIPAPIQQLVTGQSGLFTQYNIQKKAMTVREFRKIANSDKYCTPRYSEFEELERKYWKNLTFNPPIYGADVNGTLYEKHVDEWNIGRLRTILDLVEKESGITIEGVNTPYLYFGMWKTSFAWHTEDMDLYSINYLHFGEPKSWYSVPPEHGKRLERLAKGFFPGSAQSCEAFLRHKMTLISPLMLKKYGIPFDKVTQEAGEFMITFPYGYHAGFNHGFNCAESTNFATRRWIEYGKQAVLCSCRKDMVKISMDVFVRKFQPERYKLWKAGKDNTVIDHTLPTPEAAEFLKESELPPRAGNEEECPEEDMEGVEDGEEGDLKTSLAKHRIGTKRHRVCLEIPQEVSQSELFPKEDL
Protocol: (§1) To measure fluorescence polarization, a Perkin Elmer EnVision 2102 Multilabel plate reader equipped with FP-FITC optic module was used. Corning half-area, black, flat-bottom, polystyrene, 96-well plates (cat. #: 3993) were used for all FP studies. Auto-adjustment of focal height and gain was performed in the well containing 80 μL of 1 nM fluorophore 20, the recommended concentration of fluorescein for this plate reader.
(§2) The dissociation constant (Kd) for fluorophore 20 to GST-JMJD2A(1-420) was measured (See FIG. 8) by titrating 20 (1 nM) with purified JMJD2A using protocols reported by Rossi et al. in Nat. Protoc., 2011, 6(3), 365-87. Fluorescence intensity values in parallel (i.e., I11) and perpendicular (i.e., I⊥) planes for each well were measured after 2 h of incubation at room temperature. For each experimental measurement, the protein background was subtracted, and the polarization (P) was calculated using these corrected values of I11 and I⊥ from the equation: P=(I11−G·I⊥)/(I11+G·I⊥), where the G factor is derived from the instrument auto-adjustment step. […] The Kd for 20 and JHDM1A was determined as 30±5 nM in a similar fashion.

JHDM1A = target: T2, JHDM1A (Homo sapiens, UniProt Q9Y2K7); test: Fluorescence polarization (FP) binding assay, JHDM1A; details: read-out: dissociation constant (Kd) to JHDM1A
T2 sequence (Q9Y2K7 1-1162): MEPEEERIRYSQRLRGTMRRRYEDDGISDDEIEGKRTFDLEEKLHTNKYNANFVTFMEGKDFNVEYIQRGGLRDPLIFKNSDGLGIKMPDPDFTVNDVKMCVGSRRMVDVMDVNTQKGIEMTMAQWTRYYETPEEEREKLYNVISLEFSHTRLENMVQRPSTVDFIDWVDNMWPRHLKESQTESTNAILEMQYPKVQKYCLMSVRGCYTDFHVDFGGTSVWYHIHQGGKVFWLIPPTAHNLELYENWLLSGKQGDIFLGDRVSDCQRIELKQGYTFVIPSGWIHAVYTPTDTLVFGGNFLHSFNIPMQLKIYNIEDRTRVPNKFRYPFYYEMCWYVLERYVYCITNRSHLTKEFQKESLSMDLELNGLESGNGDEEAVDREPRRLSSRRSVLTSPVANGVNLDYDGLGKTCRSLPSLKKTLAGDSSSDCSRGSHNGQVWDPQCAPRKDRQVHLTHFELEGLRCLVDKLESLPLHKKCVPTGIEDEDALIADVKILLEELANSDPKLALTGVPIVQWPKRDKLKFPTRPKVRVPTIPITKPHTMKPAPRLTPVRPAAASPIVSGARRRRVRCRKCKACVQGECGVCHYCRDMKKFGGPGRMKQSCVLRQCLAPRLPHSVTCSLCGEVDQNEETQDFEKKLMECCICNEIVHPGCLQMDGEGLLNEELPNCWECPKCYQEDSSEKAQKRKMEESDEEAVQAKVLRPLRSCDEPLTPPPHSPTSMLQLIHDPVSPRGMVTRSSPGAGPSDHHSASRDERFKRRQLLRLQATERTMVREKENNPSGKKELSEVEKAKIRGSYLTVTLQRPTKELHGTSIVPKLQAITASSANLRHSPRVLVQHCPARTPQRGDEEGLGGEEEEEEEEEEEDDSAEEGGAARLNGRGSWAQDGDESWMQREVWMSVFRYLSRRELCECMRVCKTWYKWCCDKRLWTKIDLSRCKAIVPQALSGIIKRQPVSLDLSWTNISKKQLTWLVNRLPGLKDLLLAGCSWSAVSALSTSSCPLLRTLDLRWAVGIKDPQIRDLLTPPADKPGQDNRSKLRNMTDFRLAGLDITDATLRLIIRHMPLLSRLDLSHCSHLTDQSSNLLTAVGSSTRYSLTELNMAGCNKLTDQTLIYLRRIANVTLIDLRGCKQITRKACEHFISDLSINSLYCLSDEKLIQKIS
Protocol: as §1, §2

[1] = test system: H3K4me3 and H3K9me3 levels in KYSE150 cells; test: Quantitative immunostaining assay of H3K4me3 and H3K9me3 in KYSE150 cells; assay type: cell-based, human; details: 2.5 μM, 48 h
Protocol: To quantify the cellular activity of methylstat, a quantitative image-based assay was used. […] The cellular effects of methylstat were also cell type-specific.
For quantified immunostaining experiments, KYSE150 or MCF7 cells were seeded in a 96-well plate at 10,000 cells per well and incubated at 37° C. for 24 hours. The medium was replaced and methylstat in DMSO was added at the concentration as indicated. After incubation for another 48 hours, immunostaining procedure was performed as described above using anti-H3K9me3 or anti-H3K4me3 primary antibody. Fluorescent images of cells were acquired by a Nikon Eclipse 90i fluorescence microscope and analyzed using the Cell Scoring analysis module of MetaMorph 7.0 software.

[2] = test system: prolyl hydroxylases (PHDs); test: Cellular HIF-1α level (prolyl hydroxylase specificity) in MCF7 cells; assay type: cell-based, human; details: 24 hours, methylstat up to 15 μM, DFO 150 μM, DMOG 1 and 2 mM
From the text: To assess the specificity of methylstat in vivo, another iron(II)- and α-ketoglutarate-dependent dioxygenases, prolyl hydroxylases (PHDs), was examined. PHDs have been reported to regulate normoxic inactivation of hypoxia-inducible factors (HIFs) by hydroxylating specific prolyl residues of HIFs. […] DMOG and DFO have been used to mimic hypoxia conditions by inhibiting PHDs in vivo. […] Similar results were also observed in HeLa cells (see FIG. 7).
Total lysates of cells were generated from the cells lysed in CelLytic M Cell Lysis (Sigma) with protease inhibitor cocktail (Sigma), mixed with 2×LSB buffer (100 mM Tris-HCl pH 6.8, 200 mM DTT, 4% SDS, 20% glycerol and 0.2% bromophenol blue) and boiled for 5 min before SDS-PAGE. BCA assay (Thermo) was applied for protein qualification.

| Compound | cellular activity in H3K4me3- and H3K9me3-immunostaining assays relative to methylstat [1] | cellular HIF-1α levels / prolyl hydroxylase inhibition [2] | further results |
| --- | --- | --- | --- |
| NCc1ccc(CN(CCCCN(O)C(=O)/C=C/C(=O)O)C(=S)Nc2ccc(C3=C4C=CC(=O)C=C4Cc4cc(O)ccc43)c(C(=O)O)c2)cc1 [Compound 20] | – | – | Kd (GST-JMJD2A(1-420)): 175 ± 42 nM; Kd (JHDM1A): 30 ± 5 nM |
| COC(=O)C(=O)N(O)CCCCNCc1ccc(COC(=O)Nc2cccc3ccccc23)cc1 [Compound 23a] | significantly decreased cellular activity | – | – |
| COC(=O)/C=C/C(=O)N(O)CCCC[N+](C)(C)Cc1ccc(COC(=O)Nc2cccc3ccccc23)cc1.[I-] [Compound 23f] | reduced its activity | – | – |
| COC(=O)CNC(=O)C(=O)OC [DMOG, dimethyl oxalylglycine, reference compound] | – | significantly increased cellular levels of HIF-1α | – |
| deferoxamine mesylate salt [DFO, reference compound] | – | significantly increased cellular levels of HIF-1α | – |

Source: patent US8735622B2, “Histone demethylase inhibitors and methods for using the same” (The Regents of the University of Colorado, a body corporate, priority 2011, dated 2014)
